From US10864269B2, “Therapeutic combinations comprising anti-CD73 antibodies and uses thereof” (MedImmune Limited, priority 2014, dated 2020) come the findings set out here.

Experiment [1] has as its system CD4+CD25− T cell proliferation. Nature of the experiment: AMP-mediated suppression of CD4+CD25− T cell proliferation. The format is cell-based. Particulars: primary human CD4+CD25− T cells, 100 or 200 μM AMP, 72 hours, CFSE. The procedure: In an assay for AMP-mediated T-cell suppression, primary human CD4^+ T cells depleted of CD25^+ cells were isolated from the content of leukocyte cones and used as effector cells; each cone was processed separately. Briefly, the content from a leukocyte cone was diluted in PBS, then layered over FICOLL-PAQUE® Plus (GE Healthcare, Chalfont St Giles, UK) and centrifuged at 400×g for 40 minutes with brakes turned off. Peripheral blood mononuclear cells (PBMC) were then isolated from the interface and washed with PBS by centrifugation at 200×g for 10 minutes. Supernatant was discarded and cells were suspended in PBS. Viable cells were determined, then pelleted at 350×g for 5 minutes and suspended in ROBOSEP buffer (Stem Cell, Grenoble, France) at a concentration of 5×10^7 per mL. […]
Isolated effector cells were labeled with CFSE probe (3 μM) using the CELLTRACE CFSE cell proliferation kit (Life Technologies, Paisley, UK) at a cell density of 1×10^6 cells per mL in PBS containing 0.1% BSA with an incubation period of 15 minutes at 37° C. […] Phen0203 hIgG1 was received as a ready-to-use formulation (Medlmmune, Gaithersburg, Md.) and was diluted in phosphate-buffered saline (PBS). R347 was received as a ready-to-use formulation (Medlmmune, Gaithersburg, Md.) and was diluted in PBS. […]

The subject of experiment [2] is TNFα. Briefly: Mixed leukocyte reaction, TNFα supernatant levels. The format is cell-based. Conditions: human mixed leukocyte reaction, 72 hours, 1 μM each agent. How it is done: (§1) The release of immune activating cytokines IFNγ and TNFα was evaluated in human mixed leukocyte cultures with anti-CD73 monoclonal antibody alone and in combination with an adenosine receptor inhibitor (A2ARi). The levels of IFNγ and TNFα in supernatants were detected by ELISA. Human peripheral blood lymphocytes were set up in a mixed leukocyte reaction for 72 hours and stimulated with anti-CD73 alone, A2AR inhibitor alone or both agents. Peripheral blood mononuclear cells from pairwise combinations of 8 donors were incubated for 72 hours in the presence of 1 μM anti-CD73 antibody MEDI9447 and 1 μM A2ARi SCH58261, either alone or in combination. After incubation, supernatant levels of Interferon gamma (IFNγ) and Tumor Necrosis Factor Alpha (TNFα) were measured using a Mesoscale ELISA plate. The levels of IFNγ and TNFα observed after incubation with each compound were plotted as duplicate fold-control values using levels from incubation with an isotype control antibody as a negative control.

The test system of experiment [3] is IFNγ. Briefly: Mixed leukocyte reaction, IFNγ supernatant levels. The format is cell-based. Conditions: human mixed leukocyte reaction, 72 hours, 1 μM each agent. The procedure: as §1
For experiment [4], the system named is CT26 murine colon carcinoma. Nature of the experiment: CT26 syngeneic tumor model, MEDI9447 mIgG1 with anti-PD-1. The format is in vivo, Balb/C mice. The procedure:
Syngeneic tumors were established by subcutaneous (SC) injection of 0.1 ml of 5×10^6 CT26 cells/ml suspended in HBSS into the right flanks of 8- to 10-week-old animals.
Tumors were measured by caliper and the volumes of tumors (TV) were calculated using the following formula: TV=(L×W^2)/2 (1)
Mice were randomized into groups based on bodyweight. There were no animal substitutions. 60 female Balb/c mice were used in this study.
Animals were randomly assigned into 6 groups. Animals were administered MEDI9447(mIgG1). Test articles were administered by intraperitoneal (IP) injection twice weekly starting on Day 3.
CT26 murine colon carcinoma were implanted into syngeneic Balb/C mice and treated with anti-CD73 (MEDI9447 mIgG1; 10 mg/kg), anti-PD1 (0.5 mg/kg) or the combination (10 mg/kg anti-CD73 and 0.5 mg/kg anti-PD1). […] Tumor volumes from each group of animals were plotted for individual animals out to study day 40. No control group mice were tumor free by the end of the 40 day study period (See FIG. 6). […] None of the control group mice were tumor free by the end of the study. CT26 tumors were measured in mice treated with anti-CD73 (MEDI9447 mIgG1), anti-PD1 or the combination of anti-CD73 and anti-PD1. Mice were measured until study day 40, and humanely sacrificed once tumors reached 2000 mm^3. […] Median survival increased from 25 and 33 days (anti-CD73 and anti-PD1, respectively) compared to “undefined” at day 40 for the combination.

Where [5] appears, read: study day 40, anti-CD73 10 mg/kg, anti-PD1 0.5 mg/kg, ip 2x weekly, 4 doses.

As to `Nc1ncnc2c1ncn2[C@@H]1O[C@H](COP(=O)(O)CP(=O)(O)O)[C@@H](O)[C@H]1O` [APCP, adenosine 5′-(α,β-methylene)diphosphate], the “T cell proliferation in the presence of AMP” value in experiment [1] was “increase of T-cell proliferation”.

For the compound `Nc1nc2c(cnn2CCc2ccccc2)c2nc(-c3ccco3)nn12` [SCH58261, reference compound], the “T cell proliferation in the presence of AMP” value in experiment [1] is on record as “increase of T-cell proliferation”. The “TNFα supernatant levels / secretion” value in experiment [2] was “capable of inducing”. Also, in experiment [3], the IFNγ supernatant levels entry is “capable of inducing”.

As to “MEDI9447 mIgG1: anti-CD73 antibody MEDI9447 in murine IgG1 format”, the Median survival in experiment [4] (CT26, followed until study day 40) is listed as 25 days. Further, in experiment [4] (setting [5]), the Survival is 10% and the Tumor free mice amounted to 10%. Also, the “TNFα supernatant levels / secretion” value in experiment [2] was “capable of inducing”. Moreover, the IFNγ supernatant levels result in experiment [3] is reported as “capable of inducing”.
